{
  "source": "patent US7794957B2",
  "about": "“Eukaryotic genes involved in adult lifespan regulation” (priority 2001, dated 2010)",
  "test_system": "C. elegans",
  "assay": "Antimycin A treatment, adult lifespan analysis",
  "type": "in vivo",
  "method": "During a systematic screen of a C. elegans Chromosome I RNAi library it was discovered that animals grown on bacteria expressing atp-3 double-stranded RNA lived much longer than normal (Fraser et al., Nature 408:325 (2000)). Lifespan analysis was conducted at 25° C. as described previously (Kenyon et al., Nature 366:461 (1993)). The pre-fertile period of adulthood was used as t=0 for lifespan analysis. Strains were grown at 20° C. for at least two generations before use in lifespan analysis. Statview 5.0.1 (SAS) software was used for statistical analysis and to determine means and percentiles. In all cases, p values were calculated using the logrank (Mantel-Cox) method.\nOP-50 bacteria were spread onto NG plates and allowed to grow for two days at room temperature. 50 μl of 0.01 M Antimycin A (Sigma) dissolved in 100% ethanol was dropped onto bacterial lawn and allowed to dry overnight in a fume hood at room temperature. […] Animals were transferred to new Antimycin A plates every 4 days. Control worms (ethanol only) were handled in the same manner) (Table 1).",
  "key": {"[1]": {"conditions": "fer-15(b26), fem-1(hc17) + 0.1 μM Antimycin A, 25° C."}},
  "note": "“Also recorded” adds a separate entry of the source.",
  "data": [
    {"substance": "Antimycin A", "values": [
      {"measurement": "effect on lifespan (words)", "setting": "C. elegans, from hatching through adulthood or regimen not stated, listed as antimycin", "result": "substantially increased lifespan; also recorded: increases lifespan"},
      {"measurement": "effect on lifespan (words)", "setting": "C. elegans, from hatching through adulthood or regimen not stated, listed as antimycin A", "result": "increased lifespan"},
      {"measurement": "effect on lifespan (words)", "setting": "administration to adult worms", "result": "increased lifespan"},
      {"measurement": "mean lifespan", "setting": "animals grown in the presence of 0.1 micromolar antimycin in ethanol", "result": 21, "unit": "days"},
      {"measurement": "75th percentile adult lifespan", "setting": "[1]", "result": 25, "unit": "days"},
      {"measurement": "Mean ± s.e.m. adult lifespan", "setting": "[1]", "result": "20.4 ± 0.7", "unit": "days"}
    ]}
  ]
}
